The record followed here is PubChem BioAssay AID743168 (Sanford-Burnham Center for Chemical Genomics, 2013).

Structures are written as SMILES. Active and inactive are the calls of the source.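 How the source made its calls: active means compounds whose IC50 here is at most triple their IC50 in the earlier fluorescent lipid screen; inactive means the rest.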 Some results are limits rather than exact numbers.

This assay has as its target Diacylglycerol O-acyltransferase 1 (Homo sapiens) (UniProt O75907). Put plainly: DGAT-1 acyltransferase activity inhibition, radiometric – biochemical, recombinant hDGAT-1, [14C]-TAG formation, radiolabel, counter-screen for TAG accumulation inhibitor project, dose response (AID 743168). Conditions: scintillation.

Sequence of Diacylglycerol O-acyltransferase 1 (Homo sapiens) (O75907 whole entry, looked up): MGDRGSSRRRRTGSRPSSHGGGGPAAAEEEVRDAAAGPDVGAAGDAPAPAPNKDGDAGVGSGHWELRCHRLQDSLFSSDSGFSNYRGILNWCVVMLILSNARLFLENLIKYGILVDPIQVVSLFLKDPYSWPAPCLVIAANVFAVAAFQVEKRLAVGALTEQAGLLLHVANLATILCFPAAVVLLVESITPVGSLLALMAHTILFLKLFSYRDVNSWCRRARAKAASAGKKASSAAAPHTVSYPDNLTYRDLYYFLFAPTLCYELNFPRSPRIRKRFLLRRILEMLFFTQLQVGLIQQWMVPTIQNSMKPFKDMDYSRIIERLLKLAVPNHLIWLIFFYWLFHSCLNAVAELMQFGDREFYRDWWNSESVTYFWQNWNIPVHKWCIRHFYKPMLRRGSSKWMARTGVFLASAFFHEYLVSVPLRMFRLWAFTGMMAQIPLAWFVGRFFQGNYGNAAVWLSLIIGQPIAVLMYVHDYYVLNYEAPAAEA

`O=C(Nc1cccc(-c2nc3ccccc3[nH]2)c1)c1cccc2c1C(=O)N(CCOc1ccccc1)C2`: the IC50 is > 50 µM (inactive).
The value for `CCCCN1Cc2cccc(C(=O)Nc3cccc(-c4nc5ccccc5[nH]4)c3)c2C1=O` was > 50 µM (inactive); that for `CCOCCN1Cc2cccc(C(=O)Nc3cccc(-c4nc5ccccc5[nH]4)c3)c2C1=O` was > 50 µM (inactive).
The value for `COCCN1Cc2cccc(C(=O)Nc3cccc(-c4nc5ccccc5[nH]4)c3)c2C1=O` was > 50 µM (inactive); that for `O=C(Nc1cccc(-c2nc3ccccc3[nH]2)c1)c1cccc2c1C(=O)N(CC1CC1)C2` was > 50 µM (inactive).
